Data set [1] is described as follows: Stress stability of crystal form D (XRPD evaluation). The class given is physicochemical. As for the experimental part: In order to evaluate the physical stability of the crystal form D, experiments on the stress stability for the crystal form D were performed. The physical stability of the crystal form D under high temperature, high humidity and light stress conditions was investigated. The experimental conditions of the stress stability are as follows: [table] The crystal form D was placed in the above stress conditions. After sampling at the time point, the stability sample was evaluated by XRPD.

Data set [2] can be described thus: Solubility of rucaparib camsylate crystal forms in simulated gastric juice. The class given is physicochemical. To be noted: for Solubility in SGF: about 1 mg in 1 mL, shaking 20 min, filtered, HPLC; for Solubility under low pH conditions: such as pH 1.2. As for the experimental part:
Determination of the solubility of rucaparib camsylate in simulated gastric juice. Weigh about 1 mg of the powder of Form A, Form B, Form C and Form D of rucaparib camsylate in a 2-mL tube, then add 1 mL of simulated gastric juice (Prepared by adding diluted hydrochloric acid 16.4 ml, 800 ml of water and 10 g of pepsin. After shaking, add water to volume of 1000 ml). After shaking the suspension for 20 min, it was filtered through a needle filter to obtain a clear solution. The rucaparib camsylate content in the solution was analyzed by HPLC method.

Counter-ions that a name gives are not always drawn.

Regarding `CNCc1ccc(-c2[nH]c3cc(F)cc4c3c2CCNC4=O)cc1` [Form D, 8-fluoro-2-{4-[(methylamino)methyl]phenyl}-1,3,4,5-tetrahydro-6H-azepino[5,4,3-cd]indol-6-one ((1S,4R)-7,7-dimethyl-2-oxobicyclo[2.2.1]hept-1-yl) methanesulfonic acid salt], the “Crystal form by XRPD after stress” value in data set [1] (Elevate temperature 60° C., 5 day) is recorded as “Form D”; in data set [1] (Elevate temperature 60° C., 10 day) it was “Form D”; in data set [1] (High humidity 92.5% RH, 5 day) it was “Form D”; in data set [1] (High humidity 92.5% RH, 10 day), “Form D”; in data set [1] (Light stress 4500 lux, 5 day), “Form D”; in data set [1] (Light stress 4500 lux, 10 day), “Form D”. Besides, the “Physical stability under stress conditions” value in data set [1] (high temperature, high humidity and light stress conditions) was “stable”. Moreover, in data set [2] (simulated gastric juice), the “Solubility in SGF” value is 310 µg/mL. The “Solubility at 20 minutes compared with existing crystalline forms A, B and C” value in data set [2] (simulated gastric juice, low pH, 20 minutes) is listed as “significantly higher”.

For the compound `CNCc1ccc(-c2[nH]c3cc(F)cc4c3c2CCNC4=O)cc1` [Form A, 8-fluoro-2-{4-[(methylamino)methyl]phenyl}-1,3,4,5-tetrahydro-6H-azepino[5,4,3-cd]indol-6-one ((1S,4R)-7,7-dimethyl-2-oxobicyclo[2.2.1]hept-1-yl) methanesulfonic acid salt], the “Solubility under low pH conditions” value in data set [2] was “low solubility”. Also, in data set [2] (simulated gastric juice), the “Solubility in SGF” value is 100 µg/mL.

Consider `CNCc1ccc(-c2[nH]c3cc(F)cc4c3c2CCNC4=O)cc1` [Form C, 8-fluoro-2-{4-[(methylamino)methyl]phenyl}-1,3,4,5-tetrahydro-6H-azepino[5,4,3-cd]indol-6-one ((1S,4R)-7,7-dimethyl-2-oxobicyclo[2.2.1]hept-1-yl) methanesulfonic acid salt], for which the “Solubility under low pH conditions” value in data set [2] is given as “low solubility”. Besides, in data set [2] (simulated gastric juice), the “Solubility in SGF” value was 110 µg/mL.

In the case of `CNCc1ccc(-c2[nH]c3cc(F)cc4c3c2CCNC4=O)cc1` [Form B, 8-fluoro-2-{4-[(methylamino)methyl]phenyl}-1,3,4,5-tetrahydro-6H-azepino[5,4,3-cd]indol-6-one ((1S,4R)-7,7-dimethyl-2-oxobicyclo[2.2.1]hept-1-yl) methanesulfonic acid salt], the “Solubility under low pH conditions” value in data set [2] is listed as “low solubility”. Moreover, the “Solubility in SGF” value in data set [2] (simulated gastric juice) is 130 µg/mL.
